For 31 compounds, IC50 and EC50 results are on record in patent publication US7915291B2, “Hepatitis C virus inhibitors” (Bristol-Myers Squibb Company, priority 2002, dated 2011).

For experiment [1], the target named is HCV NS3/4A protease complex, BMS strain (UniProt P27958, C1454S/C1711G, species not given/STRAIN_BMS). Kind of experiment: Recombinant HCV NS3/4A protease complex FRET peptide assay (BMS strain). The format is biochemical, HCV genotype 1a. Conditions: NS3/4A BMS strain; read-out: IC50 range. Put shortly:
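Recombinant BMS-strain NS3/4A (His-tagged NS4A with three-lysine tail, E. coli) at 2-3 nM preincubated 1 min with compound, then 2 μM ester-linked NS4A/NS4B-based FRET peptide added. Fluorescence followed in real time ~15 min at 25° C. Percent inhibition from slope of linear fluorescence change versus no-compound control.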

Experiment [2] relates to HCV replicon in Huh7 cells. Kind of experiment: HCV replicon cell-based assay. Details: species or system HCV strain 1B. The note with it: Hepatitis C virus, Huh-7; HCV replicon, Huh7 cells; read-out: EC50 range. On the technique in general: Replicon systems follow genome replication, usually without infectious particles.

Molecules are shown by their SMILES.

Consider `C=C[C@@H]1C[C@]1(NC(=O)[C@@H]1C[C@@H](Oc2cc(-c3ccccc3)nc(-c3ccccc3)c2)CN1C(=O)[C@@H](NC(=O)OC(C)(C)C)C(C)(C)C)C(=O)NS(=O)(=O)C1CC1` [Compound 415], for which the IC50 – broadly, the concentration that inhibits the measured activity by half – in experiment [1] was below 100 nM. Further, the EC50 (usually the concentration that produces a half-maximal response) in experiment [2] was below 100 nM.

On to `C=C[C@@H]1C[C@]1(NC(=O)[C@@H]1CC(Oc2nccc3cc(OC)ccc23)CN1C(=O)[C@@H](NC(=O)OC(C)(C)c1ccccc1)C(C)(C)C)C(=O)NS(=O)(=O)C1CC1` (some centres unmarked) [Compound 72], for which the IC50 in experiment [1] was below 100 nM. The EC50 in experiment [2] is 100 to 1000 nM.

For `C=C[C@@H]1C[C@]1(NC(=O)[C@@H]1C[C@@H](Nc2nc(-c3ccccc3)cs2)CN1C(=O)[C@@H](NC(=O)OC(C)(C)C)C(C)(C)C)C(=O)NS(=O)(=O)C1CC1` [Compound 53], the 50% inhibitory concentration (IC50) in experiment [1] fell in the range of 100 to 1000 nM. The EC50 in experiment [2] fell in the range of 1000 to 10000 nM.

For the compound `C=C[C@@H]1C[C@]1(NC(=O)[C@@H]1CC(Oc2nccc3cc(OC)ccc23)CN1C(=O)[C@@H](NC(=O)OC(C)(C)CC)C(C)(C)C)C(=O)NS(=O)(=O)C1CC1` (some centres unmarked) [Compound 67], the IC50 in experiment [1] was below 100 nM. In addition, in experiment [2], the EC50 was below 100 nM.

Consider `C=C[C@@H]1C[C@]1(NC(=O)[C@@H]1C[C@@H](Oc2nccc3cc(OC)ccc23)CN1C(=O)[C@@H](NC(=O)OCC(C)(C)C)C(C)(C)C)C(=O)NS(=O)(=O)C1CC1` [Compound 18], for which the IC50 in experiment [1] was below 100 nM. For the same compound, the EC50 in experiment [2] is below 100 nM.

Regarding `C=C[C@@H]1C[C@]1(NC(=O)[C@@H]1C[C@@H](Oc2ncc(C)c3ccccc23)CN1C(=O)[C@@H](NC(=O)OC(C)(C)C)C(C)(C)C)C(=O)NS(=O)(=O)C1CC1` [Compound 250], the IC50 in experiment [1] is below 100 nM. In addition, the 50% effective concentration (EC50) in experiment [2] is below 100 nM.

With `C=C[C@@H]1C[C@]1(NC(=O)[C@@H]1C[C@@H](Oc2ccnc(-c3ccsc3)c2)CN1C(=O)[C@@H](NC(=O)OC1CCCC1)C(C)(C)C)C(=O)NS(=O)(=O)C1CC1` [Compound 430], the 50% inhibitory concentration (IC50) in experiment [1] is below 100 nM. In experiment [2], the EC50 was 100 to 1000 nM.

Regarding `C=C[C@@H]1C[C@]1(NC(=O)C1C[C@@H](Oc2nc(-c3ccccc3)nc3ccc(OC)cc23)CN1C(=O)[C@@H](N)C(C)(C)C)C(=O)NS(=O)(=O)C1CC1` (some centres unmarked) [Compound 50], the IC50 in experiment [1] is 100 to 1000 nM. In addition, the EC50 in experiment [2] lay in the range of 1000 to 10000 nM.

Regarding `C=C[C@@H]1C[C@]1(NC(=O)[C@@H]1CC(Oc2nccc3cc(OC)ccc23)CN1C(=O)[C@H](CC(C)C)N(C)C(=O)OC(C)(C)C)C(=O)NS(=O)(=O)C1CC1` (some centres unmarked) [Compound 86], in experiment [1], the IC50 lay within 1000 to 10000 nM. The EC50 in experiment [2] was 10000 to 100000 nM.

With `C=C[C@@H]1C[C@]1(NC(=O)[C@@H]1CC(Oc2nccc3cc(OC)ccc23)CN1C(=O)[C@H](C(C)C)N(C)C(=O)OC(C)(C)C)C(=O)NS(=O)(=O)C1CC1` (some centres unmarked) [Compound 85], in experiment [1], the concentration for half-maximal inhibition (IC50) lay in the range of 100 to 1000 nM. Besides, in experiment [2], the EC50 lay within 1000 to 10000 nM.

Regarding `C=C[C@@H]1C[C@]1(NC(=O)[C@@H]1C[C@@H](Oc2nccc3cc(OC)ccc23)CN1C(=O)[C@@H](NC(=O)OC(C)(C)C)[C@@H](C)OC)C(=O)NS(=O)(=O)C1CC1` [Compound 92], the IC50 in experiment [1] was below 100 nM. In addition, the EC50 in experiment [2] is below 100 nM.

As for `C=CC1C[C@]1(NC(=O)[C@@H]1C[C@@H](Oc2ccnc3ccc(F)cc23)CN1C(=O)[C@@H](NC(=O)OC(C)(C)C)C(C)(C)C)C(=O)NS(=O)(=O)C1CC1` (stereo partly drawn) [Compound 239, BOCNH-P3(L-t-BuGly)-P2[(4R)-(6-fluoroquinoline-4-oxo)-S -proline]-P1(1R,2S VinylAcca)-CONHSO2Cyclopropane], the IC50 in experiment [1] was below 100 nM. The EC50 in experiment [2] is below 100 nM.

As for `C=C[C@@H]1C[C@]1(NC(=O)[C@@H]1C[C@@H](Oc2nccc3c(OC)c(OC)ccc23)CN1C(=O)[C@@H](NC(=O)OC(C)(C)C)C(C)(C)C)C(=O)NS(=O)(=O)C1CC1` [Compound 272], the IC50 in experiment [1] was below 100 nM. In experiment [2], the EC50 was below 100 nM.

For the compound `C=C[C@@H]1C[C@]1(NC(=O)[C@@H]1C[C@@H](Oc2ccnc3cc(OC)ccc23)CN1C(=O)[C@@H](NC(=O)OC(C)(C)C)C(C)C)C(=O)NS(=O)(=O)C1CC1` [Compound 378], in experiment [1], the IC50 was below 100 nM. Besides, in experiment [2], the EC50 is below 100 nM.

Regarding `CC[C@@H]1C[C@]1(NC(=O)[C@@H]1C[C@@H](Oc2nccc3c(OC)cccc23)CN1C(=O)[C@@H](NC(=O)OC(C)(C)C)C(C)(C)C)C(=O)NS(=O)(=O)C1CC1` [Compound 292], in experiment [1], the IC50 was below 100 nM. In addition, the EC50 in experiment [2] lay within 100 to 1000 nM.

For the compound `C=CC1C[C@]1(NC(=O)[C@@H]1C[C@@H](Oc2nccc3c(C(=O)c4cccs4)c(OC)ccc23)CN1C(=O)[C@@H](NC(=O)OC(C)(C)C)C(C)(C)C)C(=O)NS(=O)(=O)C1CC1` (some centres unmarked) [Compound 209], the IC50 in experiment [1] was below 100 nM. Also, the EC50 in experiment [2] is 100 to 1000 nM.

On to `C=CC1C[C@]1(NC(=O)[C@@H]1C[C@@H](Oc2nc(-c3cccnc3)cc3cc(OC)ccc23)CN1C(=O)[C@@H](NC(=O)OC(C)(C)C)C(C)(C)C)C(=O)NS(=O)(=O)C1CC1` (some centres unmarked) [Compound 328], for which, in experiment [1], the IC50 was below 100 nM. In addition, the EC50 in experiment [2] was below 100 nM.

For `C=C[C@@H]1C[C@]1(NC(=O)[C@@H]1C[C@@H](Oc2nc(OC)cc3ccccc23)CN1C(=O)[C@@H](NC(=O)OC(C)(C)C)C(C)(C)C)C(=O)NS(=O)(=O)C1CC1` [Compound 35], the IC50 in experiment [1] was below 100 nM. Besides, in experiment [2], the EC50 was below 100 nM.

With `C=C[C@@H]1C[C@]1(NC(=O)[C@@H]1C[C@@H](Oc2nccc3ccccc23)CN1C(=O)[C@@H](NC(=O)Oc1ccc(C)cc1)C(C)(C)C)C(=O)NS(=O)(=O)C1CC1` [Compound 120], the IC50 in experiment [1] is below 100 nM. Also, the 50% effective concentration (EC50) in experiment [2] is 100 to 1000 nM.

With `C=CC1C[C@]1(NC(=O)[C@@H]1C[C@@H](Oc2nnc(-n3ccnc3)c3ccccc23)CN1C(=O)[C@@H](NC(=O)OC(C)(C)C)C(C)(C)C)C(=O)NS(=O)(=O)C1CC1` (stereo partly drawn) [Compound 196, BOCNH-P3(L-tert-BuGly)-P2[(4R)-(4-(imidazo-1-yl)phthalazine-1-oxo)-S-proline]-P1(1R,2S Vinyl Acca)-CONHSO2-Cyclopropane], in experiment [1], the half-maximal inhibitory concentration (IC50) is below 100 nM. Moreover, the EC50 in experiment [2] lay in the range of 1000 to 10000 nM.

Take `C=CC1C[C@]1(NC(=O)[C@@H]1C[C@@H](Oc2cc3c(Cl)nccc3c3c2OCO3)CN1C(=O)[C@@H](NC(=O)OC(C)(C)C)C(C)(C)C)C(=O)NS(=O)(=O)C1CC1` (stereo partly drawn) [Compound 212, BOCNH-P3(L-t-BuGly)-P2[(4R)-(6-Chloro-1,3-dioxa-7aza -cyclopenta[α]naphthalen-4-oxo)-S-proline]-P1(1R,2S VinylAcca)-CONHSO2Cyclopropane]: the half-maximal inhibitory concentration (IC50) in experiment [1] was below 100 nM. The EC50 in experiment [2] was below 100 nM.

Consider `C=C[C@@H]1C[C@]1(NC(=O)[C@@H]1C[C@@H](Oc2nccc3cc(OC)ccc23)CN1C(=O)[C@@H](NC(=O)OC(C)(C)C)[C@H](C)OC(C)(C)C)C(=O)NS(=O)(=O)C1CC1` [Compound 97], for which the IC50 in experiment [1] is below 100 nM. For the same compound, the EC50 in experiment [2] is below 100 nM.

As for `C=CC1C[C@]1(NC(=O)[C@@H]1C[C@@H](Oc2ccnc3cc(C(F)(F)F)ccc23)CN1C(=O)[C@@H](NC(=O)OC(C)(C)C)C(C)(C)C)C(=O)NS(=O)(=O)C1CC1` (stereo partly drawn) [Compound 185, BOCNH-P3(L-tert-BuGly)-P2[(4R)-(7-trifluoromethyl quinolin-4-oxo)-S-proline]-P1(1R,2S Vinyl Acca)-CONHSO2-Cyclopropane], the IC50 in experiment [1] is below 100 nM. Also, the 50% effective concentration (EC50) in experiment [2] is below 100 nM.

With `C=C[C@@H]1C[C@]1(NC(=O)[C@@H]1C[C@@H](Oc2nccc3cc(OC)ccc23)CN1C(=O)[C@@H](NC(=O)OC(C)(C)C)[C@H](C)O)C(=O)NS(=O)(=O)C1CC1` [Compound 95], the IC50 in experiment [1] is below 100 nM. For the same compound, the EC50 in experiment [2] was in the range of 100 to 1000 nM.

For `C=CC1CC1(NC(=O)[C@@H]1C[C@@H](Oc2cc(CC)nc3c(C)noc23)CN1C(=O)[C@@H](NC(=O)OC(C)(C)C)C(C)(C)C)C(=O)NS(=O)(=O)C1CC1` (some centres unmarked) [Compound 9], in experiment [1], the IC50 was below 100 nM. Besides, the EC50 in experiment [2] fell in the range of 100 to 1000 nM.

As to `C=C[C@@H]1C[C@]1(NC(=O)[C@@H]1C[C@@H](Oc2ccc3c(OC)cnc(Cl)c3c2)CN1C(=O)[C@@H](NC(=O)OC(C)(C)C)C(C)(C)C)C(=O)NS(=O)(=O)C1CC1` [Compound 283], in experiment [1], the IC50 is below 100 nM. The EC50 in experiment [2] was 100 to 1000 nM.

For the compound `C=CC1C[C@]1(NC(=O)[C@@H]1C[C@@H](Oc2nnc(OCC)c3ccccc23)CN1C(=O)[C@@H](NC(=O)OC(C)(C)C)C(C)(C)C)C(=O)NS(=O)(=O)C1CC1` (stereo partly drawn) [Compound 200, BOCNH-P3(L-t-BuGly)-P2-[(4R)-(4-ethoxyphthalazine-1-oxo)-S-proline]-P1(1R,2S VinylAcca)-CONHSO2Cyclopropane], the half-maximal inhibitory concentration (IC50) in experiment [1] was below 100 nM. Further, in experiment [2], the EC50 was below 100 nM.

In the case of `C=C[C@@H]1C[C@]1(NC(=O)[C@@H]1C[C@@H](Oc2ccnc3cc(OC)ccc23)CN1C(=O)[C@@H](NC(=O)OC(C)(C)C)C(C)(C)C)C(=O)NS(=O)(=O)C1CCC1` [Compound 374, BOCNH-P3(L-t -BuGly)-P2[(4R)-(7-methoxyquinoline-4-oxo)-S-proline]-P1(1R,2S Vinyl Acca)-CONHSO2-Cyclobutane], the IC50 in experiment [1] is below 100 nM. For the same compound, the EC50 in experiment [2] was in the range of 100 to 1000 nM.

For the compound `CC[C@@H]1C[C@]1(NC(=O)[C@@H]1C[C@@H](Oc2nccc3c(Cl)cccc23)CN1C(=O)[C@@H](NC(=O)OC(C)(C)C)C(C)(C)C)C(=O)NS(=O)(=O)C1CC1` [Compound 294], the IC50 in experiment [1] is below 100 nM. In addition, the EC50 in experiment [2] fell in the range of 100 to 1000 nM.

For `C=CC1C[C@]1(NC(=O)[C@@H]1C[C@@H](Oc2nccc(-c3ccccc3)n2)CN1C(=O)[C@@H](NC(=O)OC)C(C)(C)C)C(=O)NS(=O)(=O)C1CC1` (some centres unmarked) [Compound 335], the IC50 in experiment [1] was below 100 nM. The EC50 in experiment [2] was 1000 to 10000 nM.

`C=C[C@@H]1C[C@]1(NC(=O)[C@@H]1CC(Oc2nccc3cc(OC)ccc23)CN1C(=O)[C@@H](NC(N)=O)C(C)(C)C)C(=O)NS(=O)(=O)C1CC1` (some centres unmarked) [Compound 80]: the IC50 in experiment [1] is below 100 nM. Moreover, in experiment [2], the EC50 lay in the range of 1000 to 10000 nM.
